Experimental data reported in patent US20220017863A1, “SIRT2-ABLATED CHIMERIC T CELLS” (H. Lee Moffitt Cancer Center and Research Institute, Inc., priority 2019, published 2022).
Entries after “also recorded” stand apart in the source; their conditions may differ.

Tests used:
Assay type in all cases: cell-based
human CD3+ T cells [1] = assay: IFN-γ ELISPOT on human CD3+ T cells from healthy donors; conditions: inhibitor vs vehicle, 48 hr
human TILs = assay: IFN-γ ELISPOT on human TILs from NSCLC patients; conditions: AGK2 vs vehicle, 5 patient samples
human CD3+ T cells [2] = assay: Seahorse extracellular flux analysis of CD3-stimulated human CD3+ T cells from healthy donors; conditions: anti-CD3 plus inhibitor vs vehicle, 48 hr
Method: (§1) Human peripheral blood mononuclear cells (PBMC) were obtained from healthy donors by density gradient centrifugation using Ficoll-Paque™ PLUS Media (GE Healthcare). CD3^+ lymphocytes were negatively enriched using human Pan T cell isolation Kit™ (Miltenyi Biotec).
Extracellular acidification rates (ECAR) were measured using the Seahorse XF analyzer (Agilent). Glycolysis Stress Test (GST) and glycolytic rate assay (GRA) were performed according to kit manufacturer's instructions.
The day of the assay, 2×10^5 activated T cells were plated in Cell-Tak (Corning)-coated XF96 plates in XF media (XF RPMI Medium pH 7.4 containing 2 mM L-glutamine only for GST or supplemented with 10 mM glucose, 2 mM L-glutamine and 1 mM sodium pyruvate for GRA test, all from Agilent technologies) via centrifugation to ensure cell attachment. Cells were equilibrated for 1 hour in a non-CO2 incubator before starting the assay.
For GST, ECAR was measured under basal conditions and in response to 10 mM glucose, 1 μM oligomycin and 50 mM 2-DG successively to calculate basal glycolytic rate, glycolytic capacity (in response to oligomycin), and glycolytic reserve (glycolytic capacity−basal rate). For GRA, ECAR was measured under basal conditions and in response to 0.5 μM rotenone+0.5 μM antimycin A and 50 mM 2-DG successively to calculate basal glycolysis and compensatory glycolysis (in response to rotenone+antimycin A). Results were normalized to total protein quantified using Pierce™ BCA Protein Assay Kit (ThermoFisher Scientific).
Human peripheral blood mononuclear cells (PBMC) were obtained from healthy donors by density gradient centrifugation using Ficoll-Paque™ PLUS Media (GE Healthcare). CD3^+ lymphocytes were negatively enriched using human Pan T cell isolation Kit™ (Miltenyi Biotec). […].
Extracellular acidification rate (ECAR) and oxygen consumption rate (OCR) were measured using the Seahorse XF analyzer (Agilent technologies). Glycolysis Stress Test (GST), glycolytic rate assay (GRA) and mitochondrial stress test (MST) were purchased from Agilent technologies and performed according to the kit manufacturer's instructions. […]
For GST, ECAR and OCR were measured under basal conditions and in response to 10 mM glucose, 1 μM oligomycin and 50 mM 2-DG successively to calculate basal glycolytic rate, glycolytic capacity (in response to oligomycin), and glycolytic reserve (glycolytic capacity basal rate).
For GRA, ECAR and OCR were measured under basal conditions and in response to 0.5 μM roteone/antimycin A and 50 mM 2-DG successively to calculate basal glycolysis and compensatory glycolysis (in response to rotenone/antimycin A).

[3] = target: T1, Sirt2 deacetylase activity (Homo sapiens, UniProt Q8IXJ6); assay: Western blot of acetylated α-tubulin in human CD3+ enriched T cells; conditions: 48 hr
T1 construct: endogenous in cells; host or cells: human CD3+ T cells enriched from PBMC of healthy donors
T1 sequence (Q8IXJ6 1-389): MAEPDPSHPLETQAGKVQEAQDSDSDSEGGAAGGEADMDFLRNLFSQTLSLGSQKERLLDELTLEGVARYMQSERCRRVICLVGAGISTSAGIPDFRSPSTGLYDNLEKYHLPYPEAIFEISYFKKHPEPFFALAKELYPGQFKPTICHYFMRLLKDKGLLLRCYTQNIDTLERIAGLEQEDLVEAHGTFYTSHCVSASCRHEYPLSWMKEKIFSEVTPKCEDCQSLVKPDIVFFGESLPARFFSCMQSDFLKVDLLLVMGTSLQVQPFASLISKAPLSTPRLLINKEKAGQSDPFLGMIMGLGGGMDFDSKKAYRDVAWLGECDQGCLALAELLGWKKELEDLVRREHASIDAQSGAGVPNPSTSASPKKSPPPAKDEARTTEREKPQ
Method: as §1
Whole cell lysates were prepared using lysis buffer (Pierce RIPA buffer, ThermoFisher Scientific) supplemented with cOmplete™ Protease Inhibitor Cocktail and PhosSTOP Phosphatase Inhibitor (Roche Applied Science).
Cell lysates (20 ug) or IP samples were loaded onto 10% SDS-PAGE and separated by electrophoresis followed by semi-dry transfer into polyvinylidene fluoride membranes (Immun-Blot PVDF membrane, Bio-Rad) using Trans-Blot Turbo transfer system (Bio-Rad). After transfer, the membranes were blocked at room temperature with Tris-buffered saline (TBS) containing 0.05% Tween-20 (TBST) and 5% (w/v) milk for 1 h and then incubated overnight at 4° C. with a specific primary antibody (indicated below). […] After washing 3 times with TBST, bound antibodies were detected by chemiluminescence using the Pierce™ ECL Western Blotting Substrate and the Super Signal West Femto Maximum Sensitivity Substrate kits (ThermoFisher Scientific). […]

`N#C/C(=C/c1ccc(-c2cc(Cl)ccc2Cl)o1)C(=O)Nc1cccc2ncccc12` [AGK2] was tested, and the “IFN-γ production (effector function)” value (human CD3+ T cells [1]) was “increases; also recorded: augments”, the “IFN-γ production (effector function)” value (human TILs) was “increases” and the OxPhos (human CD3+ T cells [2]) was “increased”. For the same molecule, the “aerobic glycolysis (ECAR/PER)” value (human CD3+ T cells [2]) was “increases; also recorded: augments” and the “capacity to block Sirt2 deacetylase activity, monitored by acetylated α-tubulin levels” value [3] was “confirmed; also recorded: validated”.
